Earlier results in patent publication US20050250838A1, “Formulation for sustained delivery” (priority 2004, published 2005).
Structures can show the parent of a compound that is named as a salt.

Tests used:
[1] = at 6 weeks

SMILES: Fc1ccc([C@@H]2CCNC[C@H]2COc2ccc3c(c2)OCO3)cc1 [amorphous paroxetine hydrochloride, paroxetine hydrochloride]
- solubility (at room temperature (U.S. Pat. No. 6,660,298)): up to 75 mg/ml

SMILES: CNCCC(Oc1ccc(C(F)(F)F)cc1)c1ccccc1 (stereo not drawn) [fluoxetine]
- response [1]: about 50%

SMILES: Fc1ccc([C@@H]2CCNC[C@H]2COc2ccc3c(c2)OCO3)cc1 [paroxetine hydrochloride hemihydrate]
- solubility in water (water): 6000 to 12000 µg/mL
